Each structure is given as a SMILES string. Read-outs that look alike come from different tables or passages of the source.

The subject of assay [1] is LNCaP-R2 (prostate carcinoma). As to the kind of experiment: IC50 against human cancer cell lines: LNCaP-R2. Particulars: read-out: IC50 ± SD against human cancer cell lines.
The subject of assay [2] is KB cell line (oral carcinoma). Put plainly: IC50 in human cancer cell lines (inhibiting HDAC): KB. Particulars: Homo sapiens, read-out: IC50 ± SD against human cancer cell lines, KB, oral carcinoma.
The test system of assay [3] is H460 (non-small-cell lung carcinoma). As to the kind of experiment: IC50 in human cancer cell lines (inhibiting HDAC): H460. Particulars: NCI-H460, read-out: IC50 ± SD against human cancer cell lines.
The test system of assay [4] is WI-38 (normal: lung). As to the kind of experiment: IC50 against cell lines: WI-38. Particulars: Homo sapiens, WI-38, read-out: IC50 ± SD against human cancer cell lines.
In assay [5] the test system is histone and a-tubulin acetylation in human DU145 cells. Put plainly: Western blot: acetylation in DU145 cells. In kind it is cell-based. As for the experimental part: More specifically, cells in the logarithmic phase were initially seeded at a density of 1×10^6 in 100 mm^2 dishes. […] IC50 indicia of compound in vitro potency) for the indicated times (i.e., 24 and 48 hours), adherent cells were collected for protein extract preparation. Briefly, cells were lysed with the cell lysis reagent CelLytic™ M (Sigma-Aldrich) containing 1 mM DTT, 1 mM PMSF and protease inhibitors for whole-cell lysate preparation. Equal amounts of lysate (on a protein basis) were then differentiated using the SDS-PAGE, blotted on PVDF membranes, conjugated with various specific primary antibodies, and then probed with appropriate secondary antibodies. The immunoreactive bands were detected using the ECL method and visualized on Kodak Bio-MAX MR film. Proteins from cells were extracted and subjected to the western blotting analysis. β-Actin was used as an internal control. The deacetylase enzyme assay was based on a homogeneous fluorescence release assay. […] After fluorophore from the deacetylated substrates, fluorescent signal was detected.

Assay [6] has as its system MDA-MB-231 (breast carcinoma). As to the kind of experiment: IC50 against human cancer cell lines: MDA-MB-231. To be noted: MDA-MB-231, read-out: IC50 ± SD against human cancer cell lines.
Protocol: (§1) More specifically, the IC50 values of test compounds were determined by carrying out a fluorimetric histone deacetylase assay following the manufacturer's instructions. For a pan-HDAC assay, HeLa nuclear extracts were used as a source of histone deacetylase (BioVision Inc.). Histone deacetylase isomer inhibition assays were conducted using purified recombinant histone deacetylase proteins of the various isomers (BPS Bioscience Inc.). Reactions were performed in 0.1 mol/L KCl, 20 mmol/L HEPES/NaOH at pH 7.9, 20% glycerol, 0.2 mmol/L DTA, 0.5 mmol/L DTT, and 0.5 mmol/L phenylmethylsulfonylfluoride. […] Reactions were carried out in triplicate for each test compound. Each point represented the mean±SD of replicates.
In assay [7] the test system is histone and α-tubulin acetylation in PC3 cells. Put plainly: Western blot: acetylation in PC3 cells. In kind it is cell-based, human. To be noted: concentration-dependent. How it is done: More specifically, cells in the logarithmic phase were initially seeded at a density of 1×10^6 in 100 mm^2 dishes. […] Briefly, cells were lysed with the cell lysis reagent CelLytic™ M (Sigma-Aldrich) containing 1 mM DTT, 1 mM PMSF and protease inhibitors for whole-cell lysate preparation. Equal amounts of lysate (on a protein basis) were then differentiated using the SDS-PAGE, blotted on PVDF membranes, conjugated with various specific primary antibodies, and then probed with appropriate secondary antibodies. The immunoreactive bands were detected using the ECL method and visualized on Kodak Bio-MAX MR film.
Proteins from cells were extracted and subjected to the western blotting analysis. β-Actin was used as an internal control. The deacetylase enzyme assay was based on a homogeneous fluorescence release assay. […] After fluorophore from the deacetylated substrates, fluorescent signal was detected.

Assay [8] relates to KB-L30 (KB-resistant). As to the kind of experiment: IC50 against human cancer cell lines: KB-L30. To be noted: read-out: IC50 ± SD against human cancer cell lines.
Protocol: as §1
Assay [9] has as its system PC3 (prostate carcinoma). As to the kind of experiment: IC50 in human cancer cell lines (inhibiting HDAC): PC3. Particulars: read-out: IC50 ± SD against human cancer cell lines.
For assay [10], the system named is LNCaP-R1 (prostate carcinoma). As to the kind of experiment: IC50 against human cancer cell lines: LNCaP-R1. Particulars: read-out: IC50 ± SD against human cancer cell lines.
Protocol: as §1
The subject of assay [11] is Detroit551 (normal: fibroblast). Put plainly: IC50 against cell lines: Detroit551. Particulars: Homo sapiens, Detroit 551, read-out: IC50 ± SD against human cancer cell lines.
For assay [12], the system named is DU-145 (prostate carcinoma). Put plainly: IC50 against human cancer cell lines: DU-145. To be noted: DU-145, read-out: IC50 ± SD against human cancer cell lines.
Protocol: as §1
The test system of assay [13] is KB-VIN10 (KB resistant). Put plainly: IC50 against human cancer cell lines: KB-VIN10.
Assay [14] has as its system KB-7D (KB resistant). As to the kind of experiment: IC50 against human cancer cell lines: KB-7D. To be noted: KB7D, read-out: IC50 ± SD against human cancer cell lines.
Protocol: as §1
Assay [15] deals with androgen-independent PC3 prostate cancer cells. Put plainly: Cell cycle analysis. It counts as cell-based, human. Particulars: androgen-independent PC3 prostate cancer cells. How it is done:
More specifically, cells in the logarithmic phase were initially seeded at a density of 1×10^6 in 100 mm^2 dishes. After treatment with various concentrations of test compounds for the indicated times, cells were trypsinized, washed with PBS, and fixed in 70% ethanol. The fixed cells were then treated with 50 μg/mL RNase and stained with 50 μg/mL propidium iodide at room temperature for 20 minutes. The DNA content was determined by BD FACS Calibur flow cytometry system (BD Biosciences). For each analysis, 10,000 cells were counted, and the percentage of cells in each phase was calculated using ModFit LT software (Verity Software House, Inc.).

The test system of assay [16] is HT-29 (colorectal carcinoma). As to the kind of experiment: IC50 in human cancer cell lines (inhibiting HDAC): HT-29. To be noted: HT-29, read-out: IC50 ± SD against human cancer cell lines.
Assay [17] relates to MCF-7 (breast carcinoma). As to the kind of experiment: IC50 in human cancer cell lines (inhibiting HDAC): MCF-7. To be noted: MCF7, read-out: IC50 ± SD against human cancer cell lines.
Assay [18] deals with A549 (non-small-cell lung carcinoma). Put plainly: IC50 in human cancer cell lines (inhibiting HDAC): A549. Particulars: read-out: IC50, inhibiting HDAC in human cancer cell lines; A549, non-small-cell lung carcinoma.
The subject of assay [19] is C6 glioma cell line. As to the kind of experiment: Cell death in C6 glioma in vitro (LDH assay). It counts as cell-based. Particulars: rat C6 glioma, 30 uM, after 3 days. As for the experimental part:
Cell death was analyzed by a lactate dehydrogenase (LDH) assay. The culture medium was centrifuged after the experiment and the activity of LDH released into culture media was detected with a LDH cytotoxicity detection kit (Roche). The percentage of cytotoxicity was determined by the equation: [(Experimental group−Control group)/(Triton-100-treated group (100% maximal death)−Control group)]×100%.

On to `O=C(/C=C/c1cnc2c(ccn2S(=O)(=O)c2ccccc2)c1)NO` [Compound 14a, (E)-N-hydroxy-3-(1-(phenylsulfonyl)-1H-pyrrolo[2,3-b]pyridin-5-yl)acrylamide], for which the IC50 in assay [1] is 141 ± 50 nM; in [2] it was 252 ± 58.5 nM; in assay [3], 243 ± 70.4 nM; in assay [4], more than 1000 nM; in assay [6] it was 184 ± 50 nM; in [8] it was 445 ± 249 nM. The IC50 is 380 ± 220 nM in assay [9]; 156 ± 40 nM in [10]; more than 1000 nM in assay [11]; 420 ± 170 nM in assay [12]; 213 nM in [13] (Homo sapiens, KB-VIN10, read-out: IC50 ± SD against human cancer cell lines); 276 ± 78.4 nM in assay [14]. In addition, the figures for the 50% inhibitory concentration (IC50) in assay [16] and in assay [17] were 182 ± 26.7 nM and 170 ± 55 nM, respectively. Further, the “histone and a-tubulin acetylation” value in assay [5] is “induced histone and a-tubulin acetylation”. The “histone and α-tubulin acetylation” value in assay [7] was “induced histone and α-tubulin acetylation”. The “cell cycle arrest and apoptosis” value in [15] was “induced cell cycle arrest and apoptosis”.
As to `O=C(CCCCCCC(=O)Nc1ccccc1)NO` [SAHA, reference compound], the IC50 in assay [18] turned out to be 1540 ± 80 nM; in assay [13] (read-out: IC50 ± SD against human cancer cell lines, KB-VIN10, KB resistant), 1850 ± 526 nM. In addition, the “induction of cell death (LDH)” value in assay [19] is listed as “about 70%”.

Source of the values: patent US10246455B2, “Histone deacetylase inhibitors” (Taipei Medical University, priority 2014, dated 2019).
